The term IC50 denotes the concentration that gives 50% inhibition.

In the first assay the target is T1, CHUK (IKK alpha) (Homo sapiens, UniProt O15111).
T1 construct: purchased Life Technologies (assay performed by the vendor)
T1 sequence (O15111 1-745): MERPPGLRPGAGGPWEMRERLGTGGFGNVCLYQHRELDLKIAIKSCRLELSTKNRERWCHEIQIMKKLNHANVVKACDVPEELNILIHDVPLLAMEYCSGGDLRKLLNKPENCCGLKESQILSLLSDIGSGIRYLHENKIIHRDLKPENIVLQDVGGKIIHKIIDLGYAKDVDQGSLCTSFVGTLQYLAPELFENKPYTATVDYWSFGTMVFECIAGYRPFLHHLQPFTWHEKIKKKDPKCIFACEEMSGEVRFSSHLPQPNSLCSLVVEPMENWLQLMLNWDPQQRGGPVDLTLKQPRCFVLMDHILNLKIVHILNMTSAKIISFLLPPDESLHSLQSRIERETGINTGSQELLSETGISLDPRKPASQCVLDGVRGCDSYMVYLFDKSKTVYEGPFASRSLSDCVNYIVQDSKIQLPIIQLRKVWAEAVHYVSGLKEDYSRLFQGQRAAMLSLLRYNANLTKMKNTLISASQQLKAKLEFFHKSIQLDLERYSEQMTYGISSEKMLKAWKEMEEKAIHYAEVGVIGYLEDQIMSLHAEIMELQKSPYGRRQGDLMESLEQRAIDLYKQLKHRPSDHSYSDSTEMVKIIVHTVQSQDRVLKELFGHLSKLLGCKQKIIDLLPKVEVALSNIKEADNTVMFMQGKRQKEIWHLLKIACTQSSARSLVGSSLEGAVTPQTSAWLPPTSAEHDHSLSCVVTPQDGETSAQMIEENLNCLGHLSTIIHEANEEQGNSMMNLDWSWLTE
Description: Adapta IKKα assay (TR-FRET ADP formation, Life Technologies). It is filed as biochemical. The note with it: Adapta assay. Here is the method:
IKKα and IKKβ inhibitory activity was determined using three different assays: a dissociation enhanced ligand fluorescent immunoassay (DELFIA) based on the protocol of HTScan™ IKKβ Kinase Assay (Cell Signaling Technology, USA); an Adapta IKKα assay (performed by Life Technologies); a Z′-LYTE™ IKKβ assay (performed by Life Technologies).
The reaction was performed in low-volume white 384-well plates (Corning model 4512).
The test compounds were screened in 1% DMSO (final) in the well. For 10 point titrations, 3-fold serial dilutions were conducted from the starting concentration of 50 mM.
The 2× CHUK (IKK alpha) kinase was prepared in 50 mM HEPES pH 7.5, 0.01% BRIJ-35, 10 mM MgCl2 and 1 mM EGTA. The final 10 μL kinase mixture consisted of 50-250 ng CHUK (IKK alpha) in 32.5 mM HEPES pH 7.5, 0.005% BRIJ-35, 5 mM MgCl2 and 0.5 mM EGTA. No substrate was required, as the assay measures the ability of a compound to inhibit the kinase's intrinsic ATPase activity.
5 μL of 2× Kinase mixture was incubated with 2.5 μL of ATP solution diluted to a 4×working concentration in water, in the presence of 100 nL of 100× test compound in 100% DMSO and 2.4 μL of 30 mM HEPES buffer.
After 30-second plate shake and 1-minute centrifuge at 1000×g, the resulting kinase reaction was allowed to incubate for 1 hour at room temperature before 5 μL of Detection Mix was added.
The Detection Mix, previously prepared in TR-FRET Dilution Buffer, consisted of EDTA (30 mM), Eu-anti-ADP antibody (6 nM) and an Alexa Fluor™ 647 labelled ADP tracer. The Detection Mix contained the EC60 concentration of tracer for 5-150 μM ATP.
After 30-second plate shake and 1-minute centrifuge at 1000×g, the Detection Mix was allowed to equilibrate at room temperature for 1 hour. Then the plate was read using a fluorescence plate reader configured for Adapta™ TR-FRET and the data analysed.
ADP formation was determined by calculating the emission ratio from the assay well. Therefore, the emission ratio was calculated by dividing the intensity of the tracer (acceptor) emission by the intensity of the Eu (donor) emission at 615 nm as shown in the equation below.
The IKKα and IKKb figures quoted in italicised form are from the Adapta assay described above.
(In general: Time-resolved FRET reads energy transfer from a long-lived donor to a nearby acceptor.)
Turning to `CC(C)(C)C#Cc1c(-c2ccc3[nH]nc(N)c3c2)ccnc1N` [Example 72, 5-(2-Amino-3-(3,3-dimethylbut-1-yn-1-yl)pyridine-4-yl)-1H-indazol-3-amine], inhibition was half-maximal at 1 nM (IC50).

As to `Nc1nccc(-c2ccc3[nH]nc(N)c3c2)c1C#CC1CCCC1` [Example 73, 5-(2-Amino-3-(cyclopentylethynyl)pyridine-4-yl)-1H-indazol-3-amine], the IC50 came out at 2 nM. Still for that read-out and setting: in the case of `Nc1nccc(-c2ccc3[nH]nc(N)c3c2)c1C#CC1CCCCC1` [Example 74, 5-(2-Amino-3-(cyclohexylethynyl)pyridine-4-yl)-1H-indazol-3-amine] it was 3 nM; in that of `Nc1nccc(-c2ccc3[nH]nc(N)c3c2)c1C#Cc1ccccc1` [Example 75, 5-(2-Amino-3-(phenylethynyl)pyridine-4-yl)-1H-indazol-3-amine], 1 nM. On to `Nc1nccc(-c2ccc3[nH]nc(N)c3c2)c1C#CCO` [Example 83, 3-(2-Amino-4-(3-amino-1H-indazol-5-yl)pyridine-3-yl)prop-2-yn-1-ol], for which the IC50 came to 1 nM. Still for that read-out and setting: the result for `Nc1nccc(-c2ccc3[nH]nc(N)c3c2)c1C#CCCO` [Example 84, 4-(2-Amino-4-(3-amino-1H-indazol-5-yl)pyridine-3-yl)but-3-yn-1-ol] reads 1 nM. Still for that read-out and setting: the result for `Nc1nccc(-c2ccc3[nH]nc(N)c3c2)c1C#CCCCO` [Example 85, 5-(2-Amino-4-(3-amino-1H-indazol-5-yl)pyridine-3-yl)pent-4-yn-1-ol] reads 1 nM.

Compound `CC(C)(O)C#Cc1c(-c2ccc3[nH]nc(N)c3c2)ccnc1N` [Example 87, 4-(2-Amino-4-(3-amino-1H-indazol-5-yl)pyridine-3-yl)-2-methylbut-3-yn-2-ol] displayed an IC50 of 4 nM. Same read-out and setting: in the case of `CC(C)(C)OCC#Cc1c(-c2ccc3[nH]nc(N)c3c2)ccnc1N` [Example 88, 5-(2-Amino-3-(3-(tert-butoxy)prop-1-yn-1-yl)pyridine-4-yl)-1H-indazol-3-amine] it was 8 nM; in that of `Nc1nccc(-c2ccc3[nH]nc(N)c3c2)c1C#CC1(O)CCCCC1` [Example 90, 1-((2-Amino-4-(3-amino-1H-indazol-5-yl)pyridine-3-yl)ethynyl)cyclohexan-1-ol], 3 nM. Same read-out and setting: in the case of `Nc1nccc(-c2ccc3[nH]nc(N)c3c2)c1C#CC1(O)CCCCCC1` [Example 91, 1-((2-Amino-4-(3-amino-1H-indazol-5-yl)pyridine-3-yl)ethynyl)cycloheptan-1-ol] it was 7 nM; in that of `CC(C)(N)C#Cc1c(-c2ccc3[nH]nc(N)c3c2)ccnc1N` [Example 92, 5-(2-Amino-3-(3-amino-3-methylbut-1-yn-1-yl)pyridin-4-yl)-1H-indazol-3-amine], 6 nM; in that of `Nc1nccc(-c2ccc3[nH]nc(N)c3c2)c1C#CCCN1CCCCC1` [Example 93, 5-(2-Amino-3-(4-(piperidin-1-yl)but-1-yn-1-yl)pyridin-4-yl)-1H-indazol-3-amine], 7 nM.

Consider `Nc1nccc(-c2ccc3[nH]nc(N)c3c2)c1C#CCCCN1CCCCC1` [Example 95, 5-(2-Amino-3-(5-(piperidin-1-yl)pent-1-yn-1-yl)pyridin-4-yl)-1H-indazol-3-amine], for which it took 12 nM to reach half-maximal inhibition (IC50). The same measure, in the same setting: the result for `Nc1nccc(-c2ccc3[nH]nc(N)c3c2)c1C#CCCCN1CCOCC1` [Example 96, 5-(2-Amino-3-(5-morpholinopent-1-yn-1-yl)pyridin-4-yl)-1H-indazol-3-amine] reads 21 nM; that for `Nc1nccc(-c2ccc3[nH]nc(N)c3c2)c1C#CCCC(=O)N1CCOCC1` [Example 99, 5-(2-Amino-4-(3-amino-1H-indazol-5-yl)pyridine-3-yl)-1-morpholinopent-4-yn-1-one], 3 nM; that for `Nc1cc(-c2cc(-c3ccccc3)c3[nH]nc(N)c3c2)ccn1` [Example 104, 5-(2-Aminopyridin-4-yl)-7-phenyl-1H-indazol-3-amine], 3 nM. Compound `Nc1cc(-c2cc(-c3ccoc3)c3[nH]nc(N)c3c2)ccn1` [Example 129, 5-(2-Aminopyridin-4-yl)-7-(furan-3-yl)-1H-indazol-3-amine] had an IC50 of 5 nM. Same read-out and setting: the result for `CC(C)(C)C#Cc1cc(-c2ccnc(N)c2)cc2c(N)n[nH]c12` [Example 137, 5-(2-Aminopyridin-4-yl)-7-(3,3-dimethylbut-1-yn-1-yl)-1H-indazol-3-amine] reads 11 nM; that for `CC(C)(O)C#Cc1cc(-c2ccnc(N)c2)cc2c(N)n[nH]c12` [Example 140, 4-(3-Amino-5-(2-aminopyridin-4-yl)-1H-indazol-7-yl)-2-methylbut-3-yn-2-ol], 39 nM.

Staying with this assay, now noted: Adapta assay (second line of an example).
In turn, `C#Cc1cc(-c2ccnc3[nH]ccc23)cc2c(N)n[nH]c12` [Example 200, 7-Ethynyl-5-(1H-pyrrolo[2,3-b]pyridin-4-yl)-1H-indazol-3-amine] displayed an IC50 of 3.3 nM. On the same count and under the same terms, in the case of `CC(C)(C)C#Cc1cc(-c2ccnc3[nH]ccc23)cc2c(N)n[nH]c12` [Example 201, 7-(3,3-Dimethylbut-1-yn-1-yl)-5-(1H-pyrrolo[2,3-b]pyridin-4-yl)-1H-indazol-3-amine] it was 11 nM.

`Nc1n[nH]c2c(C#CC3CC3)cc(-c3ccnc4[nH]ccc34)cc12` [Example 202, 7-(Cyclopropylethynyl)-5-(1H-pyrrolo[2,3-b]pyridin-4-yl)-1H-indazol-3-amine] registered an IC50 of 2 nM.

`Nc1n[nH]c2c(C#CC3CCCC3)cc(-c3ccnc4[nH]ccc34)cc12` [Example 203, 7-(Cyclopentylethynyl)-5-(1H-pyrrolo[2,3-b]pyridin-4-yl)-1H-indazol-3-amine] registered an IC50 of 16 nM. On the same count and under the same terms, the result for `Nc1n[nH]c2c(C#CC3CCCCC3)cc(-c3ccnc4[nH]ccc34)cc12` [Example 204, 7-(Cyclohexylethynyl)-5-(1H-pyrrolo[2,3-b]pyridin-4-yl)-1H-indazol-3-amine] reads 198 nM. On the same count and under the same terms, the result for `CC(C)(O)C#Cc1cc(-c2ccnc3[nH]ccc23)cc2c(N)n[nH]c12` [Example 206, 4-(3-Amino-5-(1H-pyrrolo[2,3-b]pyridin-4-yl)-1H-indazol-7-yl)-2-methylbut-3-yn-2-ol] reads 9 nM; that for `Nc1n[nH]c2c(C#CCCCN3CCOCC3)cc(-c3ccnc4[nH]ccc34)cc12` [Example 210, 7-(5-Morpholinopent-1-yn-1-yl)-5-(1H-pyrrolo[2,3-b]pyridin-4-yl)-1H-indazol-3-amine], 27 nM; that for `Nc1n[nH]c2c(C#CCCCN3CCCCC3)cc(-c3ccnc4[nH]ccc34)cc12` [Example 212, 7-(5-(Piperidin-1-yl)pent-1-yn-1-yl)-5-(1H-pyrrolo[2,3-b]pyridin-4-yl)-1H-indazol-3-amine], 12 nM.

Compound `Nc1n[nH]c2ccc(-c3ccnc4[nH]c(C5CC5)cc34)cc12` [Example 218, 5-(2-Cyclopropyl-1H-pyrrolo[2,3-b]pyridin-4-yl)-1H-indazol-3-amine] gave an IC50 of 1 nM. The compound `Nc1n[nH]c2ccc(-c3ccnc4[nH]c(C5CCCCC5)cc34)cc12` [Example 219, 5-(2-Cyclohexyl-1H-pyrrolo[2,3-b]pyridin-4-yl)-1H-indazol-3-amine] yielded an IC50 of 14 nM. In turn, `CC(C)(C)Cc1cc2c(-c3ccc4[nH]nc(N)c4c3)ccnc2[nH]1` [Example 220, 5-(2-Neopentyl-1H-pyrrolo[2,3-b]pyridin-4-yl)-1H-indazol-3-amine] registered a half-inhibitory concentration (IC50) of 2 nM.

These data come from patent US20250304576A1 (Cancer Research Technology Limited, priority 2022, published 2025).
